Values of other authors, collected in paper PMC2803440 (Current Chemical Genomics, 2008).

Biological target: recombinant variant of PON1

- Ki: 3000 nM
Compound: Oc1ccc2ccccc2n1 [Compound 2HQ, 2-hydroxyquinoline]
